Several values for one entry are separate records, joined by “and”; a condition that tells them apart may be missing. Equal values may be shown once.

One series deals with uterine horn. Kind of series: In situ uterine horn contractions in estrogenized anesthetized female rats. The class given is in vivo, rat. As to conditions: for A = amplitude of contractions as a % of maximal contraction induced by a tetanic dose of 10 mcg/kg oxytocin: equipotent i.v. doses (10 mcg/kg dCOMOT, Me-OT; 1 mcg/kg dOT, OT), n=5; for A = amplitude of contractions as a % of maximal contraction induced by a tetanic dose of 10 mcg/kg oxytocin / C = duration of the response: mean, SEM on next line; for D = the presence of tetany in % of the animal group (single maximal contraction lasting more than 10 min.) / B = contraction frequency per 10 min. in % / C = duration of the response: equipotent i.v. doses (10 or 1 mcg/kg); for B = contraction frequency per 10 min. in %: mean ± SEM. As to the method:
250-300 g body wt female rats (n=5 for each substance) were pre-treated for 3 days with 50 mcg di-ethylstilbestrol and 25 mg progesterone injected once daily i.m. in order to fully "estrogenize" the animals and have them all in the same functional state of myometrial reactivity. They were then anesthetized with urethane and prepared for in situ measurements of uterine horn contractions using Grass force-displacement treansducers and polygraph recording.

The next series relates to myometrium. The following applies: relative to oxytocin; cited from earlier work.
A further series relates to isolated rat uterus. Kind of series: Biological activity A: isolated rat uterus. The class given is cell-based. The source says:
| A = isolated rat uterus,

A further series has as its system in situ rat uterus. Kind of series: Biological activity B: in situ rat uterus. As to conditions: in vivo. The source says: | B = in situ rat uterus,
Series [1] has as its system isolated rat mammary gland. Kind of series: Biological activity D: isolated rat mammary gland. The class given is cell-based. The text has this:
| D = isolated rat mammary gland,

The test system of a further series is lactational activity. Kind of series: Biological activity E: lactational activity in vivo. The text has this:
| E = lactational activity in vivo

In a further series the test system is antidiuretic in the rat. Kind of series: Biological activity F: antidiuretic in the rat. As to conditions: in vivo. The text has this:
| F = antidiuretic in the rat.

Series [2] is described as follows: Partition coefficient between 2-butanol and 0.05% acetic acid. The class given is physicochemical. The following applies: 2-butanol / 0.05% acetic acid. The text has this:
K = partition coefficient between 2butanol and 0.05% acetic

Another series has as its system healthy lactating sows. Kind of series: Milk-let-down effect in healthy lactating sows. The class given is in vivo, sow. On the procedure: The milk-let-down effect of 1-desamino-1-monocarba-([…](OMe))-oxytocin (hereinafter noted as dCOMOT) was tested in healthy lactating sows. The milk-let-down effect of 0.6 mg of dCOMOT injected intravenously lasted for from 4 to 9 hours.

The test system of series [3] is sows affected with hypogalactia or agalactia. The class given is in vivo, sow. As to conditions: for Litter size (Mean ± s.d.) 7 days after treatment / Litter size (Mean ± s.d.) at day of treatment: dCOMOT 0.6 mg i.v. or i.m., oxytocin 30-50 I.U.; for sows failing to eject milk on the day after treatment: day after 1st treatment; for Mean piglet weight per litter at day of treatment / Litter size (Mean ± s.d.) at day of treatment: day of treatment (baseline); for side effects after treatment: in vivo.

For another series, the system named is pregnant cows. Kind of series: Induction of labor in pregnant Czech red-spotted cows. The series is classed as in vivo, cow. As to conditions: for Duration of Labor: individual animals. As to the method: These experiments were carried out on 13 pregnant `Czech red-spotted` cows ranging from para I to para V. Average pregnancy in this breed is 290 days in duration.
Nine of the animals were 278-290 days after insemination but actual active labor had not yet begun. These animals received no other medication (Table 7).
Four of the animals were estimated to be near to term (cf. Table 4). 48 hours before the actual experiment they received 20 mg dexamethasone i.m. in an attempt to prepare the uterine cervix for active labor. In this group, in addition to close clinical follow-up, measurements were also made of: body temp., hemoglobin (Hb), glucose, total protein, inorganic P, Ca and Mg concentrations in the blood, both in the cow during the experiment and in the calf after birth, all by standard methods.
The standard i.v. (jugular) injection dosage of dCOMOT was 5 mg. In those cases in which labor lasted longer than 6 hours (cf. Results) in second injection was given.
The first group of 9 cows was managed under field conditions--in the barns of local farms. The four animals under more intensive study were kept in stalls set aside in a research building for one week prior to the onset of the experiment and for 3 weeks following delivery for further postnatal observations.

For a further series, the system named is uterus of gilts. The class given is in vivo, gilt. The following applies: i.v., OT 1 to 5 IU, dCOMOT 0.2 to 1.0 mg. As to the method: Four gilts were used. The experiments stated about 24 hours after onset of their second or third estrus. Their cycle duration was in the range 19-22 days. They were anesthetized by i.v. administration of about 15 mg/kg Na thionembutal (in 5% (w/v) solution)--additional doses were required during the experiment. The uterus was exposed through a midline abdominal incision. A recording balloon-tipped catheter was inserted into each uterine horn through a small incision about 10 cm from the uterine body (Clay-Adams catheters, PE 90-0.86 mm i.d.×1.27 mm o.d., with a micro-balloon sealed over the tip with a double tie of 0000 silk suture). The recording system was filled with saline and each catheter was affixed to the uterine wall with 000 silk suture to prevent motion of the balloon in the lumen. The catheters exited through the mid-abdominal incision and were connected to P-23AC pressure transducers, thence to 7PL DC preamplifiers. When we were satisfied that the recording system was functioning the abdominal incision was closed about the catheters. […] Unfortunately there was not enough material for a full scale dose-response investigation.

The conditions of series [4]: sow, as in all other mammals; cited from earlier work.

Take [2-Tyr(OMe)]-OT [Me--OT]: in the series on uterine horn, the “A = amplitude of contractions as a % of maximal contraction induced by a tetanic dose of 10 mcg/kg oxytocin” value was 68%, the “D = the presence of tetany in % of the animal group (single maximal contraction lasting more than 10 min.)” value is recorded as “none”, the “B = contraction frequency per 10 min. in %” value is 42 ± 5.4% and the “C = duration of the response” value was 20.6 min. Moreover, in the series with myometrium, the “contractile activity on the myometrium in comparison with the natural hormone” value is reported as “one tenth” and the “vasoconstrictor activity in the myometrium in comparison with the natural hormone” value was “one hundredth”.
Turning to “1-desamino-1-monocarba-(2-Tyr(OMe))-oxytocin [Ic]”, the “Biological activities A = isolated rat uterus” value in the series with isolated rat uterus is recorded as 10 IU/mg. Further, the “Biological activities B = in situ rat uterus” value in the series on in situ rat uterus was 40 IU/mg. Further, the “Biological activities D = isolated rat mammary gland” value in series [1] worked out at 67 IU/mg. For the same molecule, the “Biological activities E = lactational activity in vivo” value with lactational activity is reported as 35 IU/mg. The “Biological activities F = antidiuretic in the rat” value in the series on antidiuretic in the rat is recorded as 0.9 IU/mg. Moreover, the “K = partition coefficient” value in series [2] was determined as 3.15. Also, the “duration of secondary oscillation in intramammary pressure” value in the series on healthy lactating sows (0.6 mg intravenously, healthy lactating sows) is reported as “at least 4 hours”. The “milk-let-down response after intramuscular injection” value with healthy lactating sows (intramuscular injection, compared with i.v.) is listed as “approximately the same response”. In addition, the “piglet weight gain during the observation period versus oxytocin group” value in series [3] (7 day observation period) is on record as “gained more weight”. In addition, in series [3], the “Mean piglet weight per litter 7 days after treatment” value turned out to be 2.64 ± 0.62 kg, the “Litter size (Mean ± s.d.) 7 days after treatment” value amounted to 8.92 ± 1.85, the “sows failing to eject milk on the day after treatment” value is listed as “None” and the “Mean piglet weight per litter at day of treatment” value is on record as 1.44 ± 0.37 kg. In series [3], the “Litter size (Mean ± s.d.) at day of treatment” value stood at 10.16 ± 1.65 and the “side effects after treatment” value is given as “No side effects were observed”. In the series on uterine horn, the “A = amplitude of contractions as a % of maximal contraction induced by a tetanic dose of 10 mcg/kg oxytocin” value amounted to 65%, the “D = the presence of tetany in % of the animal group (single maximal contraction lasting more than 10 min.)” value is on record as “none”, the “B = contraction frequency per 10 min. in %” value was 60 ± 5.3% and the “C = duration of the response” value stood at 185 min. Moreover, the health of calves result in the series on pregnant cows (Group I) was “All the calves were healthy”. The “Mean duration of labor from the dCOMOT injection” value in the series with pregnant cows (Group I, 9 non-pretreated cows, mean ± SEM) was determined as 14.25 ± 5.1 h. For the same molecule, the “uterine tetany during induced labor” value with pregnant cows (Group I, non-pretreated cows) is recorded as “no evidence of uterine tetany whatsoever”. Further, the response following injection result in the series with pregnant cows (Group I, non-pretreated cows, all cases) was “onset of regular uterinne contractions and increased tension in the udder”. In the series with pregnant cows (Group I, non-pretreated cows, dCOMOT i.v.), the “Duration of Labor” value is 26 h and 34 h and 22.5 h and 6 h and 24.5 h and 10 h and 1.5 h and 7 h and 15 h. For the same molecule, the health of calves result in the series on pregnant cows (Group II) is recorded as “all calves were healthy”. Moreover, the “mean duration of labor” value with pregnant cows (Group II, 4 dexamethasone pretreated cows) came to 4.3 ± 2.1 h. Moreover, the “Duration of Labor” value in the series with pregnant cows (Group II, cows pretreated with 20 mg dexamethasone i.m. 48 hours before, listed as dCOMOT) was 0.7 h and 8.2 h and 8.8 h and 8.6 h. Also, the “uterine tetany during induced labor” value with pregnant cows (Group II, dexamethasone pretreated cows) is reported as “In no cases was uterine tetany observed”. Besides, the “start of active labor after injection” value with pregnant cows (Group II, dexamethasone pretreated cows, all cases) is “within minutes”. In addition, the “Progeny Serum” value in the series on pregnant cows (Group II, dexamethasone pretreated cows, individual calves) is reported as 7.4.
In the case of 1-deamino-OT [d OT], in the series with uterine horn, the “A = amplitude of contractions as a % of maximal contraction induced by a tetanic dose of 10 mcg/kg oxytocin” value was determined as 92%, the “D = the presence of tetany in % of the animal group (single maximal contraction lasting more than 10 min.)” value is listed as 60%, the “B = contraction frequency per 10 min. in %” value was found to be 65 ± 6.2% and the “C = duration of the response” value came to 46 min.
As for `CC[C@H](C)[C@@H]1NC(=O)[C@H](Cc2ccc(O)cc2)NC(=O)[C@@H](N)CSSC[C@@H](C(=O)N2CCC[C@H]2C(=O)N[C@@H](CC(C)C)C(=O)NCC(N)=O)NC(=O)[C@H](CC(N)=O)NC(=O)[C@H](CCC(N)=O)NC1=O` [oxytocin, reference compound], the “duration of rapid increase of the intramammary pressure” value in the series on healthy lactating sows (5-10 I.U. intravenous, healthy lactating sows) lay within 5 to 10 min. Also, in series [3], the “Mean piglet weight per litter 7 days after treatment” value is reported as 2.28 ± 0.44 kg, the “Litter size (Mean ± s.d.) 7 days after treatment” value was found to be 9.10 ± 2.10, the “sows failing to eject milk on the day after treatment” value is recorded as “Four out of 17” and the “Mean piglet weight per litter at day of treatment” value amounted to 1.40 ± 0.22 kg. Moreover, in series [3], the “Litter size (Mean ± s.d.) at day of treatment” value is on record as 10.00 ± 1.95 and the “side effects after treatment” value was “No side effects were observed”. In the series on uterine horn, the “A = amplitude of contractions as a % of maximal contraction induced by a tetanic dose of 10 mcg/kg oxytocin” value is 90%, the “D = the presence of tetany in % of the animal group (single maximal contraction lasting more than 10 min.)” value was determined as 60%, the “B = contraction frequency per 10 min. in %” value was determined as 43 ± 3.2% and the “C = duration of the response” value came out at 10.4 min. In addition, in the series with uterus of gilts, the “contraction rate after injection (baseline 6/10 min)” value was 8/10. The response duration entry in the series with uterus of gilts (anesthetized gilts) is recorded as “approximately 10 min”. For the same molecule, the “biochemical half-life of injected hormone” value in series [4] is “only a few minutes”.

(Values after patent US4349544A, “Method for increasing the milk let down in mammals” (Ceskoslovenska akademie ved, priority 1976, dated 1982).)
